In patent publication US9498506B2, “Pharmaceutical composition for preventing or treating thyroid diseases, comprising extract from Lonicera caerulea L. var. edulis fruits as active ingredient” (H&K BIOSCIENCE CO., LTD., priority 2013, dated 2016):
Marks after values point to notes of the source that are not given here.

Legend:
Type in all cases: in vivo
[1] = tested on: PTU-induced hypothyroidism rat; experiment: Change in the weight of reproductive organs, PTU-induced hypothyroidism animal model; details: PTU-induced hypothyroidism rats; 0.5 mg/kg intraperitoneally
Protocol: (§1) Experimental animals are the same as described in Experimental Example 3.
(§2) Based on conventional methods known in the art (Neuro Endocrinol Lett. 1999; 20:311-14; Toxicol Sci. 2002; 69:79-91; Korean J Orient Physiol Pathol. 2010; 24:630-7), a hypothyroidism animal model was prepared by administering Propylthiouracil (PTU). Specifically, hypothyroidism was induced by dissolving 100 mg of PTU into 10 ml of saline solution and subcutaneously injecting the capacity of 1 ml/kg into dorsal neck of the animal model once everyday for a period of 28 days. On the other hand, in the intact control group, the same amount of saline solution instead of PTU was administered for the same period in the same manner as described above (FIG. 5).
(§3) Targeting the hypothyroidism animal prepared as above, 500, 250, and 125 mg/kg of the extract from Lonicera caerulea L. car. Edulis fruits (BH) prepared in Example 1-1 were dissolved in sterilized distilled water, respectively, and the capacity of 5 ml/kg was orally administered forcibly once a day for 42 consecutive days, 2 weeks prior to the PTU treatment. On the other hand, LF, an experimental group, was also dissolved in sterilized distilled water, and the capacity of 250 mg/kg was orally administered for the same period in the manner as described above.
(§4) 0.5 mg/kg of LT4 was dissolved in saline solution, and the capacity of 1 ml/kg was intraperitoneally administered once a day for 28 consecutive days since the PTU treatment day in the same manner as described above (Table 6, FIG. 5).

[2] = tested on: PTU-induced hypothyroidism rat; experiment: Content of sex hormones in serum, PTU-induced hypothyroidism animal model; details: PTU-induced hypothyroidism rats; LT4 0.5 mg/kg intraperitoneally
Protocol: as §1, §2, §3, §4

[3] = tested on: PTU-induced hypothyroidism rat; experiment: Testicular antioxidant defense system, PTU-induced hypothyroidism animal model; details: testis, PTU-induced hypothyroidism rats; 0.5 mg/kg intraperitoneally
Protocol: as §1, §2, §3, §4

[4] = tested on: PTU-induced hypothyroidism rat; experiment: Histopathological observation of thyroid, PTU-induced hypothyroidism animal model; details: PTU-induced hypothyroidism rats; 0.5 mg/kg intraperitoneally
Protocol: as §1, §2
as §3, with “above. […]” for “above.”

[5] = tested on: PTU-induced hypothyroidism rat; experiment: Thyroid hormone content in blood, PTU-induced hypothyroidism animal model; details: PTU-induced hypothyroidism rats; 0.5 mg/kg intraperitoneally
Protocol: as §1, §2, §3, §4
(§5) Next, the effects on treating hypothyroidism was confirmed by observing the weight change, thyroid weight change, content change in blood thyroid hormone (TSH, T3, and T4), and histopathological changes in the thyroid (the total thickness of thyroid in which the cells have been cut and average diameter of thyroid follicle) of the rats for each group.

[6] = tested on: PTU-induced hypothyroidism rat; experiment: Change in weight, PTU-induced hypothyroidism animal model; details: PTU-induced hypothyroidism rats
Protocol: as §1, §2, §3, §4
as §5, with “group. […]” for “group.”

[7] = tested on: PTU-induced hypothyroidism rat; experiment: Change in the thyroid weight, PTU-induced hypothyroidism animal model; details: PTU-induced hypothyroidism rats; 0.5 mg/kg intraperitoneally
Protocol: as §1, §2
as §3, with “above. […]” for “above.”

[8] = tested on: PTU-induced hypothyroidism rat; experiment: Histopathological observation of reproductive organs, PTU-induced hypothyroidism animal model; details: PTU-induced hypothyroidism rats; 0.5 mg/kg intraperitoneally
Protocol: as §1, §2, §3, §4

[9] = tested on: LT4-induced hyperthyroidism rat; experiment: Change in weight, LT4-induced hyperthyroidism animal model; details: LT4-induced hyperthyroidism rats
Protocol: (§6) Total number of 150 male SPF. VAF Outbred-Rats, Crl:CD [Sprague-Dawley, SD] rats (6 weeks old, OrientBio, Seungnam, Korea) were prepared and refined for 8 days in a laboratory environment. After that, rats with consistent weight (average: 233.70 g±10.47 g, 217 g to 252 g) were selected, and 8 rats per group (total of 56 rats) were used for the experiment. In the present invention, all the experimental animals were treated according to animal ethics of the animal experimentation ethics committee of Daegu Haany University. The experiment was conducted after pre-approval.
(§7) Based on conventional methods known in the art (Clin Exp Pharmacol Physiol. 2007 November; 34(11):1217-9, etc.), a hyperthyroidism animal model was prepared by administering LT4 (levothyroxine). Specifically, hyperthyroidism was induced by dissolving 3 mg of LT4 into 10 ml of saline solution and subcutaneously injecting the capacity of 1 ml/kg into dorsal neck of the animal model once everyday for a period of 27 days. On the other hand, in the intact control group, the same amount of saline solution instead of LT4 was administered for the same period in the same manner as described above (FIG. 1).
(§8) Targeting the hyperthyroidism animal prepared as above, 500, 250, and 125 mg/kg of the extract from Lonicera caerulea L. car. Edulis fruits (BH) prepared in Example 1-1 were dissolved in sterilized distilled water, respectively, and the capacity of 5 ml/kg was orally administered forcibly once a day from Day 12 to Day 15 since the treatment.
(§9) On the other hand, Lonicerae Flos aqueous hot water extract (LF), an experimental group, was also dissolved in sterilized distilled water, and the capacity of 250 mg/kg was orally administered for the same period in the same manner as described above. 10 mg/kg of PTU was dissolved in saline solution, and the capacity of 1 ml/kg was intraperitoneally administered for the same period in the same manner as described above (Table 1, FIG. 1).
as §5, with “hyperthyroidism” for “hypothyroidism”, “change” for “changes”, “cut,” for “cut and”, “follicle, and thickness of thyroid epithelium)” for “follicle)”

[10] = tested on: LT4-induced hyperthyroidism rat; experiment: Thyroid hormone content in blood (radioimmunoassay), LT4-induced hyperthyroidism animal model; details: LT4-induced hyperthyroidism rats; 10 mg/kg intraperitoneally
Protocol: as §6, §7, §8
On the other hand, Lonicerae Flos aqueous hot water extract (LF), an experimental group, was also dissolved in sterilized distilled water, and the capacity of 250 mg/kg was orally administered for the same period in the same manner as described above. […]
The TSH, T3, and T4 contents in blood were measured in the units including ng/ml or μg/ml by Gamma count Cobra II (Packard Co., IL, USA) utilizing Coat A count Total TSH, T3 or T4 kit (DPC, CA, USA), respectively, based on Radioimmunoassay method (Toxicol Sci 69(1): 79-91, 2002).

[11] = tested on: LT4-induced hyperthyroidism rat; experiment: Change in the weight of thyroid, LT4-induced hyperthyroidism animal model; details: LT4-induced hyperthyroidism rats; 10 mg/kg intraperitoneally
Protocol: as §6
Based on conventional methods known in the art (Clin Exp Pharmacol Physiol. 2007 November; 34(11):1217-9, etc.), a hyperthyroidism animal model was prepared by administering LT4 (levothyroxine). […]
On the final day of sacrifice, left thyroids of all the experimental animals were extracted and isolated and next, the weight was measured and designated as the absolute weight. In order to minimize the secondary change accompanied with the change in weight, relative thyroid gland weight (Absolute […] weight/body weight at sacrifice ×100), which was the ratio of the absolute weight of the thyroid based on body weight, was calculated.

[12] = tested on: LT4-induced hyperthyroidism rat; experiment: Histopathological observation of thyroid, LT4-induced hyperthyroidism animal model; details: LT4-induced hyperthyroidism rats; 10 mg/kg intraperitoneally
Protocol: as §6, §7, §8
as §9, with “1). […]” for “1).”

N[C@@H](Cc1cc(I)c(Oc2cc(I)c(O)c(I)c2)c(I)c1)C(=O)O [LT4, Levothyroxine]
Absolute organ weights Epididymis [1]: 0.342 ± 0.042^ac g
Absolute organ weights Prostate [1]: 0.492 ± 0.042^ef g
Absolute organ weights Testis [1]: 1.082 ± 0.045^eg
Relative organ weights Epididymis [1]: 0.086 ± 0.012^gi % of body weights
Relative organ weights Prostate [1]: 0.124 ± 0.013^gf % of body weights
Relative organ weights Testis [1]: 0.273 ± 0.021^ac % of body weights
Serum male reproductive hormone levels DHT [2]: 98.00 ± 13.43^ab pg/ml
Serum male reproductive hormone levels FSH [2]: 21.01 ± 1.65^ab ng/ml
Serum male reproductive hormone levels Testosterone [2]: 1.45 ± 0.18^fi ng/ml
Antioxidant defense system Catalase [3]: 8.63 ± 2.13^eg U/mg protein
Antioxidant defense system H2O2 [3]: 80.63 ± 16.27^ab nM/mg protein
Antioxidant defense system SOD [3]: 8.50 ± 2.00^eg U/mg protein
Lipid peroxidation Malondialdehyde [3]: 5.54 ± 0.91 nM/mg protein
Thyroid gland Mean follicular diameters [4]: 102.24 ± 12.47^ac μm/follicle
Thyroid gland Total thickness [4]: 1542.77 ± 137.07^bc μm/central regions
Serum thyroid hormone levels TSH [5]: 10.74 ± 1.62^bc ng/ml
Serum thyroid hormone levels Thyroxine [5]: 6.75 ± 1.45^e μg/ml
Serum thyroid hormone levels Tri-iodothyronine [5]: 19.24 ± 3.21^a ng/ml
Body weight gains during 4 weeks of PTU treatment ([6]; 0.5 mg/kg intraperitoneally): 45.50 ± 14.55^fg
Body weight gains during 6 weeks of total experiments ([6]; 0.5 mg/kg intraperitoneally): 173.00 ± 16.75^ab
Body weight gains during 2 weeks of test material pretreatment ([6]; 0.5 mg/kg intraperitoneally group, period before LT4 and PTU dosing, in g (unit assumed)): 127.50 ± 13.15
Absolute organ weights Thyroid gland [7]: 0.012 ± 0.003^c g
Relative organ weights Thyroid gland [7]: 0.003 ± 0.001^c % of body weights
Epididymis A/O tubule percentages [8]: 56.00 ± 7.52^df %/mm^2
Epididymis Mean tubular diameters [8]: 217.98 ± 14.97^df μm/tubules of head
Prostate Atrophic tubule percentage [8]: 73.50 ± 10.80^ab %/mm^2
Prostate Mean tubular epithelial thickness [8]: 11.82 ± 2.76^df μm/tubules
Testis Mean semniferous tubule diameters [8]: 195.00 ± 13.29^df μm/tubules
Testis Stage I~II semniferous tubule percentages [8]: 15.63 ± 2.39^df %/mm^2

CCCc1cc(=O)[nH]c(=S)[nH]1 [PTU, 6-n-propyl-2-thiouracil]
Body weight gains during 15 days of PTU and herbal extracts treatment ([9]; 10 mg/kg intraperitoneally): 58.75 ± 15.04^ab
Body weight gains during 27 days of total experiments ([9]; 10 mg/kg intraperitoneally): 113.63 ± 24.49^ab
days after administration from which weight was considerably increased compared to LT4 control ([9]; 10 mg/kg intraperitoneally): 5 days
Body weight gains during 12 days of LT4 pretreatment ([9]; 10 mg/kg intraperitoneally group, period before test substance dosing): 54.50 ± 13.15^d
Serum thyroid hormone levels TSH [10]: 1.37 ± 0.24^ac ng/ml
Serum thyroid hormone levels Thyroxine [10]: 71.30 ± 23.13^bc μg/ml
Serum thyroid hormone levels Tri-iodothyronine [10]: 0.80 ± 0.18^ac ng/ml
Absolute organ weights Thyroid gland [11]: 8.88 ± 2.03^h mg
Relative organ weights (% of BW) Thyroid gland [11]: 2.71 ± 0.64^c mg/g of BW
Thyroid glands Mean follicular epithelium thickness [12]: 14.50 ± 2.84^gh μm/follicle
Thyroid glands Mean follicular thickness [12]: 71.87 ± 12.05^c μm/follicle
Thyroid glands Total thickness [12]: 1628.19 ± 174.84^ac μm/central region
